Experimental data reported in ChEMBL document CHEMBL1201862, “PubChem BioAssay data set” (2004).
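Results reflect a 48-hour exposure of cells in 96-well plates to compound at five concentrations. Here, GI50 denotes the concentration required for 50% inhibition of growth.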 Calls of active or inactive are those of the source. No stated cut-off is given here; in the data, active = GI50 up to about 1.1 µM and inactive = higher.

Legend:
Assay in all cases: NCI anticancer screen, dose series, 48 h
CAKI-1 = system: CAKI-1
HCC 2998 = system: HCC 2998
HOP-62 = system: HOP-62
HT-29 = system: HT-29
IGROV-1 = system: IGROV-1
M14 = system: M14
Malme-3M = system: Malme-3M
NCI-H226 = system: NCI-H226
NCI-H460 = system: NCI-H460
NCI-H522 = system: NCI-H522
OVCAR-8 = system: OVCAR-8
PC-3 = system: PC-3
RPMI-8226 = system: RPMI-8226
SF-268 = system: SF-268
SF-295 = system: SF-295
SK-MEL-2 = system: SK-MEL-2
SK-OV-3 = system: SK-OV-3
SW-620 = system: SW-620
UACC-62 = system: UACC-62
HL-60 = system: HL-60

| Structure (SMILES) | GI50 (CAKI-1) | GI50 (HCC 2998) | GI50 (HOP-62) | GI50 (HT-29) | GI50 (IGROV-1) | GI50 (M14) | GI50 (Malme-3M) | GI50 (NCI-H226) | GI50 (NCI-H460) | GI50 (NCI-H522) | GI50 (OVCAR-8) | GI50 (PC-3) | GI50 (RPMI-8226) | GI50 (SF-268) | GI50 (SF-295) | GI50 (SK-MEL-2) | GI50 (SK-OV-3) | GI50 (SW-620) | GI50 (UACC-62) | GI50 (HL-60) |
| --- | --- | --- | --- | --- | --- | --- | --- | --- | --- | --- | --- | --- | --- | --- | --- | --- | --- | --- | --- | --- |
| CC(Nc1ccc(Cl)cc1)c1ccncc1 (configuration not stated) | > 100 µM (inactive) | > 100 µM (inactive) | > 100 µM (inactive) | 89.5 µM (inactive) | 62.5 µM (inactive) | > 100 µM (inactive) | > 100 µM (inactive) | > 100 µM (inactive) | 36.8 µM (inactive) | 69.5 µM (inactive) | > 100 µM (inactive) | 64.1 µM (inactive) | 12.4 µM (inactive) | 79.6 µM (inactive) | 72.6 µM (inactive) | > 100 µM (inactive) | 0.0315 µM (active) | > 100 µM (inactive) | – | – |
| O=C1Cc2c(-c3ccccc3)cc(-c3ccc4ccccc4c3)nc2-c2ccccc2N1 | 3.25 µM (inactive) | 22.6 µM (inactive) | 7.52 µM (inactive) | 3.31 µM (inactive) | 1.93 µM (inactive) | 9.2 µM (inactive) | 7.06 µM (inactive) | 8.45 µM (inactive) | 11.4 µM (inactive) | 3.25 µM (inactive) | 1.46 µM (inactive) | 15.7 µM (inactive) | 17.7 µM (inactive) | 4.29 µM (inactive) | 17.8 µM (inactive) | 43.9 µM (inactive) | 6.64 µM (inactive) | 29.2 µM (inactive) | 10.7 µM (inactive) | – |
| Cc1cn([C@H]2C[C@H](O)[C@@H](CO)O2)c(=O)nc1N | > 100 µM (inactive) | – | > 100 µM (inactive) | > 100 µM (inactive) | > 100 µM (inactive) | > 100 µM (inactive) | > 100 µM (inactive) | > 100 µM (inactive) | > 100 µM (inactive) | > 100 µM (inactive) | > 100 µM (inactive) | > 100 µM (inactive) | > 100 µM (inactive) | > 100 µM (inactive) | > 100 µM (inactive) | > 100 µM (inactive) | > 100 µM (inactive) | > 100 µM (inactive) | > 100 µM (inactive) | > 100 µM (inactive) |
| CCn1c(=O)c2c3cc(O)ccc3oc2c2ccc(O)cc21 | 34.3 µM (inactive) | 19.3 µM (inactive) | 28.8 µM (inactive) | 25.2 µM (inactive) | 42.6 µM (inactive) | 31.2 µM (inactive) | 32.7 µM (inactive) | 37.1 µM (inactive) | 26.9 µM (inactive) | 19.3 µM (inactive) | 36.7 µM (inactive) | 31.1 µM (inactive) | – | 27.5 µM (inactive) | 25 µM (inactive) | – | 43.6 µM (inactive) | 31.3 µM (inactive) | 20.3 µM (inactive) | – |
| NCC(=O)Nc1ccccc1 | > 100 µM (inactive) | > 100 µM (inactive) | > 100 µM (inactive) | > 100 µM (inactive) | > 100 µM (inactive) | > 100 µM (inactive) | > 100 µM (inactive) | > 100 µM (inactive) | > 100 µM (inactive) | > 100 µM (inactive) | > 100 µM (inactive) | > 100 µM (inactive) | – | > 100 µM (inactive) | > 100 µM (inactive) | 87.7 µM (inactive) | – | > 100 µM (inactive) | > 100 µM (inactive) | – |
| CCCCN1C(=O)c2c(Br)sc(Br)c2C1=O | 67.8 µM (inactive) | 33.8 µM (inactive) | 26.6 µM (inactive) | 23.3 µM (inactive) | 31.6 µM (inactive) | 31.1 µM (inactive) | 33.2 µM (inactive) | 51.1 µM (inactive) | 31.6 µM (inactive) | 0.391 µM (active) | 38.9 µM (inactive) | 28.8 µM (inactive) | 29.3 µM (inactive) | 31.8 µM (inactive) | 43.1 µM (inactive) | 46 µM (inactive) | 37.6 µM (inactive) | 24.8 µM (inactive) | 32.4 µM (inactive) | – |
| CC(/C=N/N=C1NCCCCN1)=N\N=C1NCCCCN1 | > 100 µM (inactive) | > 100 µM (inactive) | > 100 µM (inactive) | 84.1 µM (inactive) | > 100 µM (inactive) | 18.2 µM (inactive) | 35.8 µM (inactive) | > 100 µM (inactive) | > 100 µM (inactive) | > 100 µM (inactive) | > 100 µM (inactive) | 87.7 µM (inactive) | > 100 µM (inactive) | > 100 µM (inactive) | 47.2 µM (inactive) | – | > 100 µM (inactive) | > 100 µM (inactive) | > 100 µM (inactive) | – |
| COc1ccc2c(c1)[nH]c1c3ccc(OC)cc3oc(=O)c21 | > 100 µM (inactive) | > 100 µM (inactive) | > 100 µM (inactive) | > 100 µM (inactive) | > 100 µM (inactive) | > 100 µM (inactive) | > 100 µM (inactive) | > 100 µM (inactive) | > 100 µM (inactive) | – | > 100 µM (inactive) | > 100 µM (inactive) | 60.7 µM (inactive) | > 100 µM (inactive) | > 100 µM (inactive) | > 100 µM (inactive) | > 100 µM (inactive) | > 100 µM (inactive) | > 100 µM (inactive) | 0.867 µM (active) |
| COc1ccc2c(c1)CCN1CCCc3ccc(OC)cc3C21 (configuration not stated) | 41.8 µM (inactive) | 37.9 µM (inactive) | 67.9 µM (inactive) | 31.7 µM (inactive) | 57.4 µM (inactive) | 24.2 µM (inactive) | – | 38.5 µM (inactive) | – | 32.3 µM (inactive) | > 100 µM (inactive) | 28.5 µM (inactive) | 31.6 µM (inactive) | 82.6 µM (inactive) | 24.6 µM (inactive) | 52.1 µM (inactive) | 77.4 µM (inactive) | 76.7 µM (inactive) | 57.3 µM (inactive) | – |
| O=C1c2ccccc2C(=O)c2c(NC(=O)c3ccc4c5c(ncnc35)-c3ccccc3C4=O)cccc21 | > 100 µM (inactive) | > 100 µM (inactive) | 14.7 µM (inactive) | > 100 µM (inactive) | > 100 µM (inactive) | > 100 µM (inactive) | > 100 µM (inactive) | > 100 µM (inactive) | > 100 µM (inactive) | > 100 µM (inactive) | > 100 µM (inactive) | > 100 µM (inactive) | > 100 µM (inactive) | 97.5 µM (inactive) | 23.4 µM (inactive) | 89.3 µM (inactive) | 23.2 µM (inactive) | > 100 µM (inactive) | > 100 µM (inactive) | – |
| C/C(=N\NC(=S)NC1CCCC1)c1ccccn1 | < 0.01 µM (active) | 0.515 µM (active) | < 0.017 µM (active) | < 0.01 µM (active) | < 0.01 µM (active) | < 0.01 µM (active) | 0.434 µM (active) | 0.0416 µM (active) | 0.0533 µM (active) | – | < 0.0218 µM (active) | < 0.01 µM (active) | < 0.01 µM (active) | 0.569 µM (active) | 0.223 µM (active) | 1.35 µM (inactive) | 0.1 µM (active) | < 0.01 µM (active) | 0.2 µM (active) | < 0.01 µM (active) |
| O=c1nc(N2CCCCC2)sc2[nH]c3ccccc3c12 | > 100 µM (inactive) | – | 36.2 µM (inactive) | 62.4 µM (inactive) | 78 µM (inactive) | 34.8 µM (inactive) | 68.4 µM (inactive) | – | 98.2 µM (inactive) | > 100 µM (inactive) | > 100 µM (inactive) | > 100 µM (inactive) | 40.9 µM (inactive) | 54.3 µM (inactive) | > 100 µM (inactive) | > 100 µM (inactive) | > 100 µM (inactive) | > 100 µM (inactive) | > 100 µM (inactive) | > 100 µM (inactive) |
| NS(=O)(=O)c1nc(S(=O)(=O)O)c2[nH]cnc2n1 | > 100 µM (inactive) | – | > 100 µM (inactive) | > 100 µM (inactive) | > 100 µM (inactive) | > 100 µM (inactive) | > 100 µM (inactive) | > 100 µM (inactive) | > 100 µM (inactive) | > 100 µM (inactive) | > 100 µM (inactive) | > 100 µM (inactive) | > 100 µM (inactive) | > 100 µM (inactive) | > 100 µM (inactive) | > 100 µM (inactive) | > 100 µM (inactive) | > 100 µM (inactive) | > 100 µM (inactive) | – |
| COc1cc2c3cc1Oc1c(OC)c(OC)cc4c1C(Cc1ccc(O)c(c1)-c1cc(ccc1OC)CC3N(C)CC2)N(C)CC4 (configuration not stated) | 16.4 µM (inactive) | 17.2 µM (inactive) | – | 6.92 µM (inactive) | 22.1 µM (inactive) | 3.18 µM (inactive) | 18.2 µM (inactive) | 40.6 µM (inactive) | 16 µM (inactive) | 11.5 µM (inactive) | 17.4 µM (inactive) | 20.4 µM (inactive) | – | 19.1 µM (inactive) | 16.5 µM (inactive) | 19.5 µM (inactive) | 72.8 µM (inactive) | 22.3 µM (inactive) | 23.9 µM (inactive) | 2.66 µM (inactive) |
| CCOC(=O)c1nc2cc(F)c(F)cc2nc1NCc1cc(OC)c(OC)c(OC)c1 | > 100 µM (inactive) | – | 38.5 µM (inactive) | > 100 µM (inactive) | > 100 µM (inactive) | > 100 µM (inactive) | > 100 µM (inactive) | – | > 100 µM (inactive) | > 100 µM (inactive) | > 100 µM (inactive) | > 100 µM (inactive) | – | > 100 µM (inactive) | > 100 µM (inactive) | > 100 µM (inactive) | > 100 µM (inactive) | > 100 µM (inactive) | 67.1 µM (inactive) | > 100 µM (inactive) |
